Target: Metabotropic glutamate receptor 4 (Homo sapiens, UniProt Q14833)
Test: In Vitro Testing of mGluR4 Potency
Experimental: The in vitro activity of the compounds according to the invention may be investigated as follows:[0111]The HEK293 cell overexpressing the human metabotropic Glutamate 4 receptor are thawed at 37 C. and immediately diluted with cell culture medium. After centrifugation, the cell pellet is re-suspended in medium and then distributed from a stirred spinner flask into the wells of the assay plate. The plates are incubated for one hour at room temperature before they are incubated for 24 hours at 37 C./5% CO2. After washing the cells in the plate three times with 80 uL HBSS/HEPES buffer (10 uL buffer remained in the wells after washing), 5 uL per well of compounds diluted in HBSS/HEPES buffer containing 0.2% BSA (final concentration: 0.1%) and 1 mM IBMX (final concentration: 0.5 mM) are added to the wells of the assay plate. Thereafter 5 uL per well of L-Glutamic acid (final concentration: 10 uM), forskolin (final concentration: 1 uM) and 1 mM IBMX (final concentration: 0.5 mM) dissolved in HBSS/HEPES buffer containing 0.2% BSA (final concentration: 0.1%) are added to the assay plate (final DMSO concentration: 1%). […] The emission at 615 nm and 665 nm (Excitation wavelength: 320 nm) are measured on the EnVision reader (Perkin Elmer). The ratio between the emission at 665 nm and 615 is calculated by the reader. […]

Metabotropic glutamate receptor 4, sequence (Q14833 whole entry): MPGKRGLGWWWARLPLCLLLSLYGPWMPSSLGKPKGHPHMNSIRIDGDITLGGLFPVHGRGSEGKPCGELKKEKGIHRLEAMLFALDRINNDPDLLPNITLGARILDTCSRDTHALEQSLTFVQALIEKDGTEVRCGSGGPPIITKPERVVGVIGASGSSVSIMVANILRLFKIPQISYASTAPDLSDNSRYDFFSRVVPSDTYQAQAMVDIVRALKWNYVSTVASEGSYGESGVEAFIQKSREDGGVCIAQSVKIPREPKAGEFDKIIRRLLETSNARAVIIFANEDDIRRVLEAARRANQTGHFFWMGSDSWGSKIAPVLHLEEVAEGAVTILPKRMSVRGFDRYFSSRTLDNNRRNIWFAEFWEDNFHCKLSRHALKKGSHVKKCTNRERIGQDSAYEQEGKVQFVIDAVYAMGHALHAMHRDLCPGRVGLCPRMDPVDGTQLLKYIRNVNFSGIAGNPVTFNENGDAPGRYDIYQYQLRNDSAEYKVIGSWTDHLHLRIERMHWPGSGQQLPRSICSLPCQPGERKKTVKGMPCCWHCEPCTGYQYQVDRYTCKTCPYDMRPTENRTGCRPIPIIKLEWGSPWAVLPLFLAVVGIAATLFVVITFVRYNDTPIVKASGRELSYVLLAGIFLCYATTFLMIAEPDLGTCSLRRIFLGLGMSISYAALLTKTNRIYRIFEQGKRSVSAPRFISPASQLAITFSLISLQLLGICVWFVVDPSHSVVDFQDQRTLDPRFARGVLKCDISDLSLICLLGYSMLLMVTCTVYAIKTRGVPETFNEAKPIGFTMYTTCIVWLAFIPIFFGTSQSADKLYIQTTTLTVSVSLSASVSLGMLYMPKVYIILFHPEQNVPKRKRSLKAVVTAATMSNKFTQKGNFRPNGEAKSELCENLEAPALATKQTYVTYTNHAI

Compound `Cc1cnc(C(=O)N[C@H](c2nc3cc(F)c(F)cc3n2C)C2CC2)cn1` [US20240182453, Example 66] has an IC50 of 23 nM.

From BindingDB's records for patent US20240182453 (Boehringer Ingelheim International, 2024)
